One data set concerns cTnI (troponin I). Nature of the data set: LSPR detection of cTnI with bioplasmonic paper device in buffer. It counts as binding, human. The conditions noted are these: highest concentration tested, 3.53 μg/ml cTnI. As to the method:
To probe the sensing capability of the BPDs, we exposed the BPDs to troponin I (3.53 μg/ml in 0.1 M TBS pH 8.0). […] The higher sensitivity of peptide-AuNR compared to antibody-AuNR is due to differences in the thickness of the peptide and antibody adsorbate layer as will be discussed in detail below. To probe the limit of detection in both cases, BPDs with bioconjugated AuNR were exposed to varying concentrations of cTnI. […] To compare the selectivity of the peptide and antibody towards cTnI, we used human serum albumin (HSA) as an interfering protein (Supplemental Figure S11). […] A regular laboratory filter paper (Whatman #1) was used for the absorption of nanorods. A 1 cm × 1 cm paper strip is taken and immersed in a solution of AuNR conjugates (peptide and antibody) and left overnight at 4 °C. The paper strip was taken out and washed with tris buffer and immersed in different concentrations of troponin in tris buffer (pH 8) for 2 hours at 4 °C. It was removed and washed thoroughly with tris buffer and dried under a stream of nitrogen. Extinction spectra from paper substrates were collected using a CRAIC microspectrophotometer (QDI 302) coupled to a Leica optical microscope (DM 4000 M) with 20× objective in the range of 450–800 nm with 10 accumulations and 100 ms exposure time in reflection mode. The spectral resolution of the microspectrophotometer is 0.2 nm. […]

Data set [1] in a line: Distance-dependent refractive index sensitivity of AuNR (layer-by-layer). It counts as physicochemical. An excerpt: We probed the distance-dependent sensitivity of the AuNRs, nanotransducers used in this study, by depositing polyelectrolyte multilayers using layer-by-layer (LbL) assembly. Extinction spectra were collected after the deposition of each bilayer comprised of poly(allylamine hydrocholoride) (PAH) as a positively charged polymer and poly(styrene sulfonate) (PSS) as a negatively charged polymer. […] It is instructive to define a parameter called distance-dependent refractive index sensitivity (σ), which is the LSPR shift caused by the deposition of a 1 nm thick dielectric layer (polyelectrolyte multilayers in the present case) at a predetermined distance from the surface of the nanotransducer. The extinction measurements after troponin binding to the bioconjugated AuNR were performed in the dry state. So, considering that the thickness of peptide and antibody in their dry state is ~1 nm and ~4.2 nm for peptide and antibody, respectively, the values of σ are computed as shown in Fig. 5E. For peptide recognition elements, σ is found to be 6.67 nm/nm whereas in case of antibody, σ is found to be 4.33 nm/nm. From the distance-dependent refractive index sensitivity measurements, it can be seen that the local refractive index sensitivity with peptide recognition elements is nearly 50% higher than compared to that with antibody-based recognition elements. […] This discrepancy can possibly be due to the higher number of cTnI molecules bound on the AuNR surface in the case of the peptide recognition elements compared to antibodies. The low steric hindrance of the peptides facilitates a higher density of the recognition elements on the surface of the Au nanotransducers and thus a higher density of cTnI molecules. This observation will be further explored in future studies in order to maximize the sensitivity of our BPDs.
Glass substrates were modified by 1% P2VP followed by the adsorption of AuNR. […]

The nature of data set [2]: AFM dry state thickness of recognition layer on AuNR. It counts as physicochemical. As to the method: We have also used dynamic light scattering (DLS) to monitor the changes in the hydrodynamic size of the AuNR upon bioconjugation with cTnI binding peptide or anti-cTnI. […] The dry state thickness of the peptide and antibody recognition layers was measured using atomic force microscopy (AFM; Supplemental Figure S6).
Now we turn our attention to the structure-based functional mechanism of the peptide-conjugated BPDs. The structure and thickness layer of the peptide recognition element on the gold surface was also investigated using molecular dynamic simulations (described in the supplemental section). […] The amino acid Trp[10] in the peptide (a possible binding residue to cTnI) is distal to the gold surface and accessible for cTnI binding. […] These key residues provide structural information and will be used in further studies for the optimization of peptide recognition elements for cTnI. Of importance to this study, the thickness of the biomolecule adlayer can be obtained from our molecular dynamic simulations. […] The smaller thickness of the peptide layer renders higher sensitivity of BPDs using peptide recognition elements. For calculating the thickness layer from our computational models, the gold surface is aligned in the XY plane and the thickness of the peptide or peptide-cTnI complex on the gold surface is calculated as the maximum difference of the Z-coordinates. […]

Another data set has as its target T1, cTnI (Homo sapiens, UniProt P19429).
T1 construct: purchased Life Diagnostics, USA
The note with it: identified from a phage display peptide library; cited from earlier work. An excerpt: Gold nanorods (AuNR) are an attractive choice as plasmonic nanotransducers for label-free sensing because of their geometrical tunability of LSPR wavelength and high sensitivity. We synthesized AuNRs using a seed-mediated approach with a length of 47.3 ± 2.3 nm and a diameter of 20.2 ± 1.4 nm (Fig. 2A). The human troponin I binding peptide (-FYSHSFHENWPS-), identified from a phage display peptide library, with nanomolar (nM) binding affinity to cTnI was employed here as the biorecognition element. The conjugation of the peptide to AuNRs as achieved by introducing a cysteine residue at ...

In data set [3] the target is T2, Human Cardiac Troponin-I Recombinant (human, UniProt P19429 1-210).
T2 construct: human cardiac troponin I, recombinant, bought; also called cTnI; source: bought: Life Diagnostics, USA (recombinant)
Nature of the data set: pull-down; peptide-conjugated AuNRs with cTnI; SDS-PAGE, blotted with polyclonal goat antibody. The conditions noted are these: both partners purified.

Values joined by “and” are separate entries in the source; they are usually repeats but may differ in a detail not shown here. Equal values may be shown once.

T1 sequence (P19429 whole entry): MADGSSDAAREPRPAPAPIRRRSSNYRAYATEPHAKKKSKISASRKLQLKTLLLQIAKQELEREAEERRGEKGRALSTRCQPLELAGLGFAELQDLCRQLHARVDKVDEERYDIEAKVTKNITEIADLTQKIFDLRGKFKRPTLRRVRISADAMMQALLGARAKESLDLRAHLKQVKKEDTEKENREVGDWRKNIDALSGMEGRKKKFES
T2 sequence (P19429 whole entry): as above

Regarding “-FYSHSFHENWPSC- [cysteine-modified peptide]”, the “LSPR shift higher than with antibodies as recognition elements” value in the data set on cTnI (troponin I) is reported as roughly 100%. Besides, the “distance-dependent refractive index sensitivity (σ)” value in data set [1] (AuNRs on glass, PAH/PSS multilayers, at dry thickness of ~1 nm (peptide) or ~4.2 nm (antibody)) is given as 6.67 nm/nm. In data set [1] (from σ curve of Fig. 5E), the “corresponding LSPR shift from the distance-dependence curve” value amounted to 24.5 nm. In addition, in data set [1] (peptide vs antibody), the “local refractive index sensitivity higher than with antibody-based recognition elements” value was roughly 50%. Moreover, the “thickness of recognition layer on AuNR” value in data set [2] is 0.96 nm and ~ 0.9 nm.
Regarding -FYSHSFHENWPS-, the “binding affinity to cTnI” value on cTnI is “nanomolar”.

B1: cysteine-modified human troponin I binding peptide (-FYSHSFHENWPSC-) (peptide)
peptide: FYSHSFHENWPSC
notes: In all assays the peptide was attached to gold (Au surface of the QCM, or gold nanorods) by an Au-S linkage through its C-terminal cysteine; source: synthetic peptide, bought: Genscript USA Inc
For B1, the binding result in data set [3] is on record as “binds”.

The values are drawn from PMC4639779, “Peptide Functionalized Gold Nanorods for the Sensitive Detection of a Cardiac Biomarker Using Plasmonic Paper Devices” (Scientific Reports, 2015).
